Source: patent publication US20240101562A1, “NOVEL COMPOUND, AND PHARMACEUTICAL COMPOSITION FOR PREVENTING OR TREATING RESISTANT CANCER, COMPRISING SAME” (HOLOSMEDIC, priority 2020, published 2024)

Columns and labels:
Type in all cases: cell-based
[1] = system: SKOV3-TR cell line (paclitaxel-resistant, derived from SKOV3); test: WST-1 assay, co-treatment with docetaxel, SKOV3-TR; conditions: docetaxel alone, 1 μM, three days
Description: (§1) According to the results of WST-1 assays, which measure cell proliferation or survival, a reduction in metabolism in SKOV3 and SKOV3-TR was induced by docetaxel treatment.
(§2) After SKOV3 and SKOV3-TR were co-treated with 79 types of compounds and docetaxel, the WST-1 assays were performed.
(§3) Specifically, the two cancer cell lines grown in 96-well plates were treated with the 79 types of compounds at a low concentration (0.5 μM) or a high concentration (2 μM) and docetaxel, and the docetaxel concentration used herein were 1 μM for the SKOV3-TR cell line and 0.75 nM for the SKOV3 cell line. For cytotoxicity analysis, three days after the co-treatment of DMSO (docetaxel, compound solvent), docetaxel and the 79 types of compounds, the WST-1 assays were performed.

[2] = system: SKOV3 cell line (epithelial ovarian cancer); test: WST-1 assay, co-treatment with docetaxel, SKOV3; conditions: docetaxel alone, 0.75 nM, SKOV3, three days
Description: as §1, §2, §3

[3] = system: SKOV3 cell line (epithelial ovarian cancer); test: WST-1 assay, co-treatment with paclitaxel, SKOV3; conditions: paclitaxel alone, 2 nM or 0.05 μM, SKOV3, three days
Description: (§4) According to the results of WST-1 assays, which measure cell proliferation or survival, a reduction in metabolism in SKOV3 and SKOV3-TR was induced by paclitaxel treatment. The WST-1 assays were performed after SKOV3 and SKOV3-TR were co-treated with 79 types of compounds and paclitaxel.
(§5) Specifically, the two cancer cell lines grown in 96-well plates were treated with the 79 types of compounds at a low concentration (0.5 μM) or a high concentration (2 μM) and paclitaxel, and the paclitaxel concentration used herein was 3 μM or 4 μM for the SKOV3-TR cell line, and 2 nM or 0.05 μM for the SKOV3 cell line. For cytotoxicity analysis, three days after co-treatment of DMSO (paclitaxel, compound solvent), paclitaxel and the 79 types of compounds, the WST-1 assays were performed.

[4] = system: SKOV3-TR cell line (paclitaxel-resistant, derived from SKOV3); test: WST-1 assay, co-treatment with paclitaxel, SKOV3-TR; conditions: paclitaxel alone, 3 μM or 4 μM, three days
Description: as §4, §5

Compound | absorbance at 450 nm compared to the DMSO-treated group [1] | absorbance at 450 nm compared to the DMSO-treated group [2] | absorbance at 450 nm compared to the DMSO-treated group [3] | absorbance at 450 nm compared to the DMSO-treated group [4]
CC(=O)O[C@@]12CO[C@@H]1C[C@H](O)[C@@]1(C)C(=O)[C@H](O)C3=C(C)[C@@H](OC(=O)[C@H](O)[C@@H](NC(=O)OC(C)(C)C)c4ccccc4)C[C@@](O)([C@@H](OC(=O)c4ccccc4)[C@H]21)C3(C)C [docetaxel] | reduced | reduced | – | –
CC(=O)O[C@H]1C(=O)[C@@]2(C)[C@H]([C@H](OC(=O)c3ccccc3)[C@]3(O)C[C@H](OC(=O)[C@H](O)[C@@H](NC(=O)c4ccccc4)c4ccccc4)C(C)=C1C3(C)C)[C@]1(OC(C)=O)CO[C@@H]1C[C@@H]2O [paclitaxel] | – | – | reduced | reduced
